What was measured:
Assay in all cases: relative viability (nuclei count vs DMSO), 5 days (fraction); higher = more cells survive
R406 + Bortezomib = compound: COc1cc(Nc2ncc(F)c(Nc3ccc4c(n3)NC(=O)C(C)(C)O4)n2)cc(OC)c1OC [R406] + CC(C)C[C@H](NC(=O)[C@H](Cc1ccccc1)NC(=O)c1cnccn1)B(O)O [Bortezomib] (partner 0.002 µM)
Outline: (§1)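 Cells from lung cancer lines were seeded into 1536-well plates and, one day later, dosed by pin tool. Treatments were either a single drug or a fixed dose of an anchor drug with five library-drug doses (not always all listed) in √10 steps. After 5 days, nuclei were stained in a one-step fixation (final 0.05% Triton X-100, 1% formaldehyde, 1 ug/ml Hoechst) and counted on 4× images, and relative viability is the treated-to-vehicle nuclei ratio, as the median of duplicate plates.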

R406 + Linsitinib = compound: COc1cc(Nc2ncc(F)c(Nc3ccc4c(n3)NC(=O)C(C)(C)O4)n2)cc(OC)c1OC [R406] + C[C@]1(O)C[C@@H](c2nc(-c3ccc4ccc(-c5ccccc5)nc4c3)c3c(N)nccn32)C1 [Linsitinib] (partner 1 µM)
Outline: as §1

Daporinad + Palbociclib = compound: O=C(/C=C/c1cccnc1)NCCCCC1CCN(C(=O)c2ccccc2)CC1 [Daporinad] + CC(=O)c1c(C)c2cnc(Nc3ccc(N4CCNCC4)cn3)nc2n(C2CCCC2)c1=O [Palbociclib] (partner 0.5 µM)
Outline: as §1

Daporinad + Dasatinib = compound: O=C(/C=C/c1cccnc1)NCCCCC1CCN(C(=O)c2ccccc2)CC1 [Daporinad] + Cc1nc(Nc2ncc(C(=O)Nc3c(C)cccc3Cl)s2)cc(N2CCN(CCO)CC2)n1 [Dasatinib] (partner 0.075 µM)
Outline: as §1

Cell Line	relative viability (R406 + Bortezomib; first compound 0.08 µM)	relative viability (R406 + Bortezomib; first compound 0.253 µM)	relative viability (R406 + Bortezomib; first compound 0.8 µM)	relative viability (R406 + Bortezomib; first compound 2.53 µM)	relative viability (R406 + Bortezomib; first compound 8 µM)	relative viability (R406 + Linsitinib; first compound 0.08 µM)	relative viability (R406 + Linsitinib; first compound 0.253 µM)	relative viability (R406 + Linsitinib; first compound 0.8 µM)	relative viability (R406 + Linsitinib; first compound 2.53 µM)	relative viability (R406 + Linsitinib; first compound 8 µM)	relative viability (Daporinad + Palbociclib; first compound 0.0005 µM)	relative viability (Daporinad + Palbociclib; first compound 0.001581 µM)	relative viability (Daporinad + Palbociclib; first compound 0.005 µM)	relative viability (Daporinad + Palbociclib; first compound 0.01581 µM)	relative viability (Daporinad + Dasatinib; first compound 0.0005 µM)	relative viability (Daporinad + Dasatinib; first compound 0.001581 µM)	relative viability (Daporinad + Dasatinib; first compound 0.005 µM)	relative viability (Daporinad + Dasatinib; first compound 0.01581 µM)
HOP-62	0.835	0.656	0.559	1.02	0.82	0.773	0.97	0.936	0.684	0.865	0.399	0.437	0.479	0.423	0.62	0.809	0.721	0.587
LC-2-ad	0.973	1.09	0.987	0.111	0.133	0.828	0.832	0.729	0.385	0.158	0.463	0.511	0.491	0.486	0.622	0.539	0.68	0.765
LCLC-97TM1	0.718	0.659	0.793	0.489	0.207	0.192	0.191	0.218	0.172	0.182	0.194	0.191	0.24	0.235	0.77	0.89	0.865	0.844
LCLC-103H	0.972	1.29	1.08	0.781	0.9	1.04	1.2	0.976	1.14	0.792	0.526	0.556	0.503	0.518	0.546	0.411	0.465	0.502
LOU-NH91	0.427	0.4	0.469	0.496	0.471	0.992	0.882	0.982	0.602	0.521	0.442	0.519	0.548	0.509	0.544	0.497	0.654	0.745
LU99A	1.07	0.968	1.26		0.512	0.518	0.499	0.572		0.197	0.381	0.414	0.391	0.391	0.539	0.492	0.708	0.547
LXF-289	0.913	0.953	1.01	1.04	0.483	0.922	0.967	0.994	0.989	0.295	0.59	0.633	0.6	0.602	0.178	0.292	0.214	0.289
NCI-H23	0.953	1.45	1.35	0.906	0.278	0.494	0.7	0.7	0.56	0.459	0.578	0.467	0.463	0.275	0.895	0.699	0.85	0.829
NCI-H322M	1.19	0.994	1.19	0.534	0.803	0.879	0.814	0.983	0.523	0.472	0.495	0.565	0.449	0.512	0.272	0.266	0.259	0.259
NCI-H441		0.383	0.713		0.331	0.377	0.609	0.662	0.411	0.47	0.186	0.209	0.212	0.23	0.665	0.614	0.618	0.662
NCI-H460	0.96	1.33	1.58		0.486	0.824	0.8	1.17		0.0646	0.153	0.191	0.236	0.169	0.575	0.639	0.489	0.505
NCI-H520	0.604	0.804	0.971	0.209	0.157	0.897	1.09	1.07	0.486	0.295	0.209	0.286	0.158	0.183	0.248	0.227	0.162	0.182
NCI-H647	0.89	1.02	1.59	0.0846	0.188	0.813	1.21	1.15	0.763	0.159	0.251	0.429	0.414	0.363	0.146	0.27	0.282	0.196
NCI-H650	0.712	0.852	0.977	0.625	0.389	0.909	0.876	1.15	0.473	0.528	0.351	0.423	0.329	0.367	0.391	0.395	0.473	0.53
NCI-H661	0.769	0.877	0.945	0.721	0.469	0.436	0.72	0.515	0.39	0.335	0.389	0.459	0.419	0.359	0.939	1	0.518	0.388
NCI-H727	0.803	0.965	1.1	0.278	0.747	0.252	0.28	0.319	0.35	0.237	0.694	0.622	0.647	0.646	0.475	0.327	0.437	0.364
NCI-H838	0.709	1.46	1.01	0.11	0.153	1.03	1.15	1.12	0.645	0.522	0.254	0.258	0.29	0.199	0.276	0.29	0.296	0.296
NCI-H1355	1.23	1.29	1.44	1.02	0.957	0.83	0.83	0.94	0.588	0.596	0.413	0.412	0.384	0.504	0.664	0.674	0.671	0.761

Cell Line	relative viability (R406 + Bortezomib; first compound 0.08 µM)	relative viability (R406 + Bortezomib; first compound 0.253 µM)	relative viability (R406 + Bortezomib; first compound 0.8 µM)	relative viability (R406 + Bortezomib; first compound 2.53 µM)	relative viability (R406 + Bortezomib; first compound 8 µM)	relative viability (R406 + Linsitinib; first compound 0.08 µM)	relative viability (R406 + Linsitinib; first compound 0.253 µM)	relative viability (R406 + Linsitinib; first compound 0.8 µM)	relative viability (R406 + Linsitinib; first compound 2.53 µM)	relative viability (R406 + Linsitinib; first compound 8 µM)	relative viability (Daporinad + Palbociclib; first compound 0.0005 µM)	relative viability (Daporinad + Palbociclib; first compound 0.001581 µM)	relative viability (Daporinad + Palbociclib; first compound 0.005 µM)	relative viability (Daporinad + Palbociclib; first compound 0.01581 µM)	relative viability (Daporinad + Dasatinib; first compound 0.0005 µM)	relative viability (Daporinad + Dasatinib; first compound 0.001581 µM)	relative viability (Daporinad + Dasatinib; first compound 0.005 µM)	relative viability (Daporinad + Dasatinib; first compound 0.01581 µM)
NCI-H1437	0.392	0.768	0.675	0.259	0.226	1.01	1.26	1.24	0.904	0.49	0.274	0.332	0.338	0.289	0.342	0.47	0.4	0.415
NCI-H1651	0.921	1.06	0.9	0.935	0.948	0.862	1.1	1.06	0.829	0.5	0.537	0.528	0.5	0.522	0.419	0.433	0.439	0.446
NCI-H1666	0.803	1.03	0.853	0.336	0.617	0.837	0.792	0.872	0.735	0.449	0.653	0.679	0.624	0.69	0.746	0.871	0.674	0.721
NCI-H1734	0.828	1.16	1.05	0.344	0.269	0.912	0.859	0.949	0.818	0.554	0.361	0.404	0.356	0.328	0.566	0.489	0.495	0.462
NCI-H1755	0.994	1	0.974	0.748	0.571	0.924	1.02	1.02	0.779	0.688	0.456	0.441	0.415	0.431	0.414	0.435	0.388	0.408
NCI-H1792	0.981	0.909	1.04	0.851	0.861	0.484	0.387	0.744	0.411	0.505	0.637	0.694	0.654	0.681	0.617	0.815	0.477	0.921
NCI-H1915	0.963	1.01	0.985	0.79	0.898	1.09	1.12	1.09	1.09	0.98	0.569	0.508	0.61	0.521	0.299	0.331	0.399	0.337
NCI-H1975	0.444	0.39	0.401	0.162	0.178	0.875	1.06	0.981	0.467	0.186	0.565	0.602	0.613	0.705	0.336	0.364	0.356	0.38
NCI-H1993	1.04	1.12	1.11	0.544	0.6	0.762	0.656	0.709	0.675	0.703	0.583	0.563	0.719	0.706	0.548	0.481	0.664	0.676
NCI-H2009	0.983	1.11	1.24	0.427	0.27	1.09	1.3	1.19	1.18	1.07	0.204	0.253	0.252	0.0753	0.295	0.337	0.277	0.22
NCI-H2023	0.914	1.04	1.08	0.0862	0.29	0.633	0.714	0.62	0.253	0.55	0.402	0.405	0.445	0.401	0.504	0.711	0.631	0.72
NCI-H2085	0.996	1.14	1.1	0.708	0.775	0.899	1.08	0.825	0.971	0.707	0.41		0.512	0.533	0.268	0.244	0.267	0.284
NCI-H2087	0.815	1.02	0.847	0.428	0.751	1.29	1.04	0.914	1.03	0.709	0.215	0.242	0.224	0.243	0.787	1.17	0.934	0.923
NCI-H2126	1.05	1.13	1.24	1.03	1.04	0.683	0.783	0.753	0.657	0.625	0.358	0.32	0.356	0.36	0.681	0.57	0.547	0.727
NCI-H2228	1.05	1.15	1.32	0.118	0.304	0.729	0.813	0.889	0.273	0.154	0.67	0.745	0.529	0.811	0.543	0.563	0.569	0.554
NCI-H2347	1.07	1.25	1.19	0.815	0.642	0.928	1.01	1.06	0.848	0.71	0.447	0.447	0.419	0.384	0.326	0.308	0.342	0.299
NCI-H2405	1.01	1.11	1.05	0.941	0.845	0.916	0.89	1.01	0.731	0.221	0.54	0.577	0.555	0.415	0.168	0.226	0.231	0.252
NCI-H3122	0.97	0.972	1.03	1.01	0.947	0.976	0.921	0.982	1.01	0.98	0.168	0.205	0.192	0.177	0.664	0.73	0.807	0.59
